“And” between values parts separate entries of the source, which are not always exact repeats. Equal values may be shown once.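 Step 1: Grow cells in 96-well plates. Step 2: Expose to compound for 48 hours at 5 concentrations. Step 3: Interpolate endpoints linearly; if unreached, use highest concentration. At the GI50, growth is halved. TGI: concentration producing complete growth inhibition.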

Assay in all cases: growth of human tumour cells (NCI), 48 h
Assay [1] concerns SNB-75 CNS.
The test system of assay [2] is M14 melanoma.
In assay [3] the test system is UO-31 renal.
Assay [4] has as its system OVCAR-3 ovarian.
The subject of assay [5] is SK-MEL-5 melanoma.
In assay [6] the test system is RXF 393 renal.
Assay [7] concerns HOP-62 NSCLC.
The subject of assay [8] is SK-MEL-2 melanoma.
Assay [9] concerns SF-539 CNS.
Assay [10] has as its system 786-0 renal.

With `C/C=C(\C)C(=O)O[C@H]1C=CC(=O)O[C@H]1CCC(=O)[C@H](C)O`, the GI50 was 20.4 µM in assay [1]; 14.6 µM in assay [2]; 15.9 µM in assay [3]; 9.58 µM in [4]; 13.8 µM in [5]; 7.08 µM in [6]. The GI50 in [7] was 22.5 µM; in [8], 19.1 µM; in [9], 19.2 µM; in assay [10], 14.9 µM. Besides, the TGI in [1] was 41.4 µM; in assay [2], 32.8 µM; in assay [3] it was 31.2 µM; in assay [4] it was 22.3 µM; in assay [5] it was 27.1 µM; in [6], 28.5 µM. Also, the TGI was found to be 48.2 µM in assay [7], 47.3 µM in assay [8], 35.8 µM in [9] and 30.1 µM in [10].
Regarding `COC(=O)C(C(=O)c1ccccc1)C(C(=O)C(=O)Nc1ccc(OC)cc1OC)C(=O)C(=O)c1ccc(C)cc1` (centres undefined), the TGI in [1], in assay [2], in assay [3], in assay [4], in [5] and in assay [6] was over 100 µM in each case. Further, the TGI in assay [7], in [8], in assay [9] and in [10] was over 100 µM each time.
With `CN1CC(=O)N2Cc3ccccc3-n3cccc3C2C1` (centres undefined), the TGI in [1], in [2], in assay [3], in [4], in [5] and in [6] was over 100 µM in each case. Further, the TGI in assay [7], in assay [8], in [9] and in assay [10] was over 100 µM each time.
As to `Cc1ccc(SC2c3ccc(C)cc3Oc3nc(N)c(C#N)c(N)c32)cc1` (centres undefined), the GI50 was 1.5 µM in [1]; 1.77 µM in assay [2]; 1.18 µM in assay [3]; 1.77 µM in assay [4]; 1.64 µM in assay [5]; 1.81 µM in [6]. Further, the GI50 was 1.79 µM in [7], 1.84 µM in [8], 1.8 µM in [9] and 1.72 µM in assay [10]. The TGI came out at 4.53 µM in [1]; 3.49 µM in assay [2]; 2.49 µM in assay [3]; 3.22 µM in assay [4]; 3.1 µM in assay [5]; 3.28 µM in assay [6]. For the same compound, the TGI in assay [7] is 3.4 µM; in [8] it was 3.71 µM; in [9] it was 3.82 µM; in assay [10], 3.16 µM.
In the case of `CC1(C)S[C@@H]2[C@H](NC(=O)C3(N)CCCCC3)C(=O)N2[C@H]1C(=O)O`, the TGI in [1], in assay [2], in assay [3], in assay [4], in assay [5] and in [6] was over 100 µM throughout. Further, the TGI in assay [7], in assay [8], in assay [9] and in [10] was over 100 µM throughout.
Take `Nc1ccc([N+](=O)[O-])cc1N=C/C=C/c1ccccc1`: the GI50 in [1] was 10.8 µM; in assay [2], 8.66 µM; in [3], 4.31 µM; in assay [4], 4.95 µM; in assay [5] it was 10.7 µM; in assay [6], 22.7 µM. In addition, the GI50 is 42.5 µM in [7], 28.6 µM in [8], 21.7 µM in [9] and 23.3 µM in assay [10]. Besides, the TGI in assay [1] is 96.6 µM; in assay [2], over 100 µM; in [3] it was 71.4 µM; in [4] it was 26.8 µM; in assay [5] it was 48.8 µM; in assay [6], over 100 µM. Further, the TGI in assay [7], in [8], in [9] and in [10] was over 100 µM throughout.
On to `OC(CC1SCCCS1)c1ccccc1` (centres undefined), for which the TGI in assay [1], in [2], in assay [3], in [4], in assay [5] and in assay [6] was over 100 µM in each case. The TGI in [7], in assay [8], in assay [9] and in assay [10] was over 100 µM throughout.
With `O=C(CCN(C(=O)O)S(=O)(=O)c1ccc(NC(=O)c2ccccc2)cc1)Nc1ccccc1`, the TGI in assay [1], in [2], in assay [3], in assay [4], in [5] and in assay [6] was over 100 µM throughout. In addition, the TGI in [7], in assay [8], in assay [9] and in assay [10] was over 100 µM throughout.
Regarding `COc1cc(C(=O)N2CCN(C=O)C2=S)cc(OC)c1OC`, the GI50 is 10.9 µM in assay [1]; 20.6 µM in assay [2]; 16.9 µM in assay [4]; 16.1 µM in [6]; 20 µM in assay [7]; 19.9 µM in assay [8]. Moreover, the values for the GI50 in assay [9] and in assay [10] were 21.3 µM and 12.7 µM, respectively. In addition, the TGI amounted to 34.6 µM in assay [1]; 41.6 µM in assay [2]; 3.36 µM in assay [3]; 33.6 µM in [4]; 32.4 µM in [6]; 61.1 µM in [7]. In addition, the TGI came to 42 µM in [8], 43.2 µM in assay [9] and 28 µM in [10].
For the compound `CC(C)(C)NNC(=O)CCn1[nH]c(=O)c(Cl)c(Cl)c1=O`, the TGI in [1], in assay [2], in assay [3], in assay [4], in [6] and in [7] was over 100 µM in each case. The TGI in assay [8], in assay [9] and in [10] was over 100 µM throughout.
Turning to `Clc1ccc2c(c1)[nH]c1c2nc2ccccn21`, the GI50 was 32.7 µM and 14.7 µM in assay [1]; 39.9 µM and 16.4 µM in assay [5]; 26.6 µM and 11.7 µM in [6]; 78 µM and 24.6 µM in [7]. For the same compound, the TGI in [1] was > 100 µM and 37.2 µM; in [2], 64.5 µM and 36.9 µM; in assay [3], 53.7 µM and 37.5 µM; in [5], > 100 µM and 30.2 µM; in assay [6], 68.3 µM and 24.2 µM; in assay [7] it was > 100 µM and 55.6 µM. Besides, the TGI in assay [8] is > 100 µM and 17.8 µM; in assay [9], 50.3 µM and 30.6 µM; in assay [10] it was 37.5 µM and 33.1 µM.
